Results: patent US8192854B2, “Microbial fuel cell treatment of ethanol fermentation process water” (priority 2009, dated 2012)

System: inhibitor-consuming microbial consortium in a microbial fuel cell (MFC-A)
Assay: Effect of inhibitor concentration on electricity production, air-cathode MFC
Details: 0.1 g/L to 2 g/L (20.8 mM)
Protocol: After confirmation of electricity production from individual inhibitor molecules, the effect of inhibitor concentration on their removal and electricity production was studied. The experiments were conducted by adding each of the substrates individually, at the various concentrations to study substrate inhibition. From day 51 to 62, HB was used as the energy source for the MFC at concentrations from 0.1 to 1 g/L. From day 63 to day 82, 2-furfural was used as the energy source at a concentration from 0.05 to 2 g/L. From day 83 to day 101, VA was used as the substrate from 0.05 to 4 g/L, followed by use of HMF as substrate from day 129 to day 150 at a concentration from 0.2 to 2 g/L. The MFC was operated with 2-furfural as the substrate between day 102 to 128. Effect of acetate was studied in MFC-B up to a concentration of 10 g/L. The voltage output was monitored at each concentration for a period of up to five days. The effect of 2-furfural on electricity production was studied at a concentration from 0.1 g/L to 2 g/L (20.8 mM) using an air-cathode MFC. […] It should be noted that the substrate utilization was limited by the cathode side in an air-cathode MFC used in this study. […] The effect of acetate concentration was also studied in a different MFC (MFC-B) using a consortium enriched on acetate.

O=Cc1ccco1 [2-furfural]
inhibition of electricity production: No inhibition
